Measured values: patent publication US20200397894A1, “COMPOSITIONS AND METHODS FOR TREATING CANCER” (University of Virginia Patent Foundation, priority 2016, published 2020)

Legend:
FaDu cells = test: Rereplication by propidium iodide staining and FACS (HNSCC); format: cell-based, human
Procedure: The effect of pevonedistat treatment or CDT2, geminin, or EMI1 knockdown on the cell cycle (and induction of DNA rereplication) was assessed by flow cytometry with propidium iodide (PI) staining. Cells were harvested at 72 or 96 hours post-treatment with pevonedistat or post-transfection, respectively. Cells were collected, washed with PBS, and resuspended in ethanol (75%). Cells were subsequently treated with 20 μg of DNase-free RNase and stained with PI following the manufacturer's protocol. FACSCAN™ (Becton, Dickinson and Company, Franklin Lakes, N.J., United States of America) was used to analyze the samples and G0-G1, S, and G2-M fractions were segmented. Subsequent analysis using FLOWJO® (FLOWJO, LLC, Ashland, Oreg., United States of America) and ModFit (Verity Software House, Topsham, Me., United States of America) software was used to determine apoptotic and re-replicating fractions. Where indicated, Cal27 and FaDu cells were treated with pevonedistat for 48 hours and pulsed with BrdU (10 nM) for 1 hour in the dark prior to harvesting. Cells were washed with PBS and staining solution before fixation and permeabilization steps according to the manufacturer's protocol. Cells were subsequently stained with anti-BrdU antibody solution for 20 minutes at room temperature, washed, and stained with 7-AAD for 30 minutes at 4° C. Cells were resuspended in 1 ml of staining buffer and stored at 4° C. overnight before analysis. Sampled were analyzed on a FACSCAN™ (Becton, Dickinson and Company, Franklin Lakes, N.J., United States of America), and different fractions of BrdU positive cells were determined using FLOWJO® (FLOWJO, LLC, Ashland, Oreg., United States of America) and ModFit (Verity Software House, Topsham, Me., United States of America) software.

Cal27 xenografts = test: HNSCC flank xenograft in nude mice; format: in vivo
Procedure: The animal studies were conducted in accordance with the guidelines established by the University of Virginia Animal Care and Use Committee (ACUC). The effect of pevonedistat on tumor growth was tested in a flank HNSCC xenograft model. 4-5 weeks old Foxn1^nu athymic female nude immunodeficient mice (20-25 g body weight; Harlan Laboratories, now Envigo, Indianapolis, Ind., United States of America) were used. Pevonedistat was prepared in 10% DMSO containing PBS and filtered before use. 5×10^6 Cal27 cells (suspended in 200 μl sterile PBS) were inoculated subcutaneously in both flanks of nude mice (8 mice per group). When the tumor size reached 100 mm^3 (10 days post-inoculation), mice were randomized and were treated with pevonedistat (20 mg/kg), or with control vehicle (DMSO), administered intraperitoneally on a regimen of 5 days on/5 days off for 2 cycles (Tardat et al., 2010). Tumors from a third group of mice were exposed to 1Gy irradiation (IR) daily, 5 days/week for 3 weeks, and a fourth group of mice received both pevonedistat and IR treatments. Tumor irradiation was performed at the University of Virginia X-Ray facility, and only the tumors on both flanks were irradiated while the rest of animal body was shielded. For combination treatment, pevonedistat was given 2 hours prior to radiation exposure with the same schedule as for the individual treatments. Tumor growth was monitored every other day using an electronic caliper, for 3 weeks post-treatment and average of tumor volumes were calculated using the formula (L×W^2)/2). The results are represented as the mean tumor volumes±s.e.m, and p<0.05 was considered significant.

DM13 cells = test: Rereplication by propidium iodide staining and FACS; format: cell-based, human
Procedure: (§1) The effects of pevonedistat, vemurafenib, and/or silencing of various cell cycle-associated proteins by siRNA on cell cycle distribution and rereplication were assessed by propidium iodide staining and flow cytometry of asynchronous melanoma cultures. Synchronization of cells was not employed to avoid bias and to be able to measure the impact of these perturbations on proliferating cancer cells. Briefly, asynchronous melanoma cell lines were treated with pevonedistat or vemurafenib, or transfected with si-CDT1, si-CDT2, si-SET8, si-p21, sigeminin, si-EMI1, or si-GL2 for a time ranging from 24 to 96 hours. Cells were washed with cold PBS, harvested, and fixed in 70% (v/v) ethanol. Cells were subsequently treated with 20 μg of DNase-free RNase and stained with propidium iodide according to instructions of the manufacturer. Samples were analyzed on a FACSCAN™ (Becton, Dickinson and Company, Franklin Lakes, N.J., United States of America) and G0-G1, S, and G2-M fractions were segmented, and apoptotic (sub-G1 DNA content) and rereplicating (>G2/M DNA content) fractions were determined using FLOWJO® (FLOWJO, LLC, Ashland, Oreg., United States of America) and ModFit (Verity Software House, Topsham, Me., United States of America) software.

DM331 cells = test: as above; format: cell-based, human; settings: DM331, 1 μM pevonedistat
Procedure: as §1

VMM1 cells = test: as above; format: cell-based, human
Procedure: as §1

SK-MEL-28 cells = test: as above; format: cell-based, human; settings: SK-MEL-28, 1 μM pevonedistat
Procedure: as §1

SqCC/Y1 HNSCC cells = settings: SqCC/Y1, 0.5 μM pevonedistat; cited from earlier work

## NS(=O)(=O)OCC1CC(n2ccc3c(NC4CCc5ccccc54)ncnc32)CC1O [pevonedistat, ((1S,2S,4R)-4-(4-((1S)-2,3-Dihydro-H-inden-1-ylamino)-7H-pyrrolo(2,3-d)pyrimidin-7-yl)-2-hydroxycyclopentyl)methyl sulphamate]
FaDu cells; 40 nM pevonedistat 48 hours plus 2 Gy at the 24 hour time point
  cells undergoing rereplication: 42.2%
FaDu cells; 40 nM pevonedistat for 48 hours
  cells undergoing rereplication: 21.6%
FaDu cells; 100 nM pevonedistat, PI staining
  cells exhibiting >4N DNA content: 60.4%
Cal27 xenografts; 20 mg/kg IP, p=0.0211
  growth of Cal27 xenografts: significantly suppressed
Cal27 xenografts; 20 mg/kg pevonedistat plus 1 Gy IR daily, p=2×10^−3 vs. control
  growth of Cal27 xenografts, combined treatment with IR: more suppression than either treatment alone
Cal27 xenografts; nude mice, 20 mg/kg IP, 5 days on/5 days off, two cycles
  tolerability: well tolerated
Cal27 xenografts; weighed once a week during the entire experiment
  effect on mouse weight: no significant effect
DM13 cells; DM13, 1 μM pevonedistat, 24 hours
  Percent of Cells in S and G2/M at 24 hours: 10.4%
DM13 cells; DM13, 1 μM pevonedistat, 72 hours
  Percent of Cells in S and G2/M at 72 Hours: 13.7%
DM13 cells; DM13, 72 hours post-treatment
  cells undergoing rereplication: 13.7%
DM331 cells; 24 hours
  Percent of Cells in S and G2/M at 24 hours: 47.8%
DM331 cells; 72 hours
  Percent of Cells in S and G2/M at 72 Hours: 63.2%
VMM1 cells; VMM1, 1 μM pevonedistat, 24 hours
  Percent of Cells in S and G2/M at 24 hours: 7.72%
VMM1 cells; VMM1, 1 μM pevonedistat, 72 hours
  Percent of Cells in S and G2/M at 72 Hours: 30.8%
VMM1 cells; VMM1, 72 hours post-treatment
  cells undergoing rereplication: 25%
SK-MEL-28 cells; 24 hours
  Percent of Cells in S and G2/M at 24 hours: 38.7%
SK-MEL-28 cells; 72 hours
  Percent of Cells in S and G2/M at 72 Hours: 55.9%
SqCC/Y1 HNSCC cells
  apoptosis (% of cells): 55%
